Read-outs that look alike come from different tables or passages of the source.
Key:
Assay type in all cases: cell-based
AsPC-1 (K-Ras G12D) [1] = assay: Potency assay: pERK in AsPC-1 cells; settings: Homo sapiens
NCI-H358 (K-Ras G12C) = assay: CellTiter-Glo cell viability assay, H358; settings: Homo sapiens, NCI-H358, 120 h
Procedure: Determination of Cell Viability in RAS Mutant Cancer Cell Lines
Protocol: CellTiter-Glo® Cell Viability Assay
Note—The following protocol describes a procedure for monitoring cell viability of K-Ras mutant cancer cell lines in response to a compound of the invention. Other RAS isoforms may be employed, though the number of cells to be seeded will vary based on cell line used.
Test compounds (132.5 nL) were directly dispensed into the assay plates containing cells. […] On day 5, assay plates and their contents were equilibrated to room temperature for approximately 30 minutes. […] Luminescence was measured using the PerkinElmer Enspire. Data were normalized by the following: (Sample signal/Avg. DMSO)*100. The data were fit using a four-parameter logistic fit.

AsPC-1 (K-Ras G12D) [2] = assay: CellTiter-Glo cell viability assay, AsPC-1; settings: Homo sapiens, ASPC1, 120 h
Summary of the method: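 Percent-of-DMSO luminescence values (CellTiter-Glo, day 5, plates equilibrated ~30 minutes at ambient temperature) were curve-fitted using a 4-parameter logistic equation; compounds had been added straight into wells containing the cells.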

[3] = ASPC1, read-out: pERK EC50 (AsPC-1 KRAS G12D)
[4] = read-out: H358 Cell Viability IC50, NCI-H358, K-Ras G12C, 5-day treatment
[5] = read-out: AsPC-1 Cell Viability IC50, AsPC-1, K-Ras G12D, 5-day treatment
[6] = ASPC1, AsPC-1 cells, K-Ras G12D, read-out: pERK EC50 (AsPC-1 KRAS G12D)
[7] = NCI-H358, K-Ras G12C, 5-day treatment, read-out: H358 Cell Viability IC50
[8] = AsPC-1, K-Ras G12D, 5-day treatment, read-out: AsPC-1 Cell Viability IC50

| SMILES | EC50 (AsPC-1 (K-Ras G12D) [1]; [3]) [nM] | IC50 (NCI-H358 (K-Ras G12C); [4]) [nM] | IC50 (AsPC-1 (K-Ras G12D) [2]; [5]) [nM] | EC50 (AsPC-1 (K-Ras G12D) [1]; [6]) [nM] | IC50 (NCI-H358 (K-Ras G12C); [7]) [nM] | IC50 (AsPC-1 (K-Ras G12D) [2]; [8]) [nM] |
| --- | --- | --- | --- | --- | --- | --- |
| CCn1c(-c2cccnc2[C@H](C)OC)c2c3cc(ccc31)-c1cc(O)cc(c1)C[C@H](NC(=O)[C@H](C(C)C)N(C)C(=O)CN(C)C(=O)[C@H]1CN1C(C)C)C(=O)N1CCC[C@H](N1)C(=O)OCC(C)(C)C2 (stereo partly drawn) [Compound 142] | < 5000 | < 10 | 100 to 1000 | – | – | – |
| CCn1c(-c2cccnc2[C@H](C)OC)c2c3cc(ccc31)-c1cc(O)cc(c1)C[C@H](NC(=O)[C@H](C(C)C)N1CC[C@]3(CCN(C(=O)[C@H]4CN4)C3)C1=O)C(=O)N1CCC[C@H](N1)C(=O)OCC(C)(C)C2 [Compound 146] | – | – | – | < 5000 | < 10 | 100 to 1000 |
| CCn1c(-c2cccnc2[C@H](C)OC)c2c3cc(ccc31)-c1cc(O)cc(c1)C[C@H](NC(=O)[C@H](C(C)C)N(C)C(=O)CN(C)C(=O)[C@H]1CN1Cc1ccccc1F)C(=O)N1CCC[C@H](N1)C(=O)OCC(C)(C)C2 (stereo partly drawn) [Compound 155] | < 5000 | < 10 | 100 to 1000 | – | – | – |
| CCn1c(-c2cccnc2[C@H](C)OC)c2c3cc(ccc31)-c1cc(O)cc(c1)C[C@H](NC(=O)[C@H](C(C)C)N(C)C(=O)CN(C)C(=O)[C@H]1CN1Cc1ccccc1CO)C(=O)N1CCC[C@H](N1)C(=O)OCC(C)(C)C2 (stereo partly drawn) [Compound 156] | < 5000 | < 10 | 100 to 1000 | – | – | – |
| CCn1c(-c2cccnc2[C@H](C)OC)c2c3cc(ccc31)-c1cc(O)cc(c1)C[C@H](NC(=O)[C@H](C(C)C)N(C)C(=O)CN(C)C(=O)[C@@H]1CN1CCOC)C(=O)N1CCC[C@H](N1)C(=O)OCC(C)(C)C2 (stereo partly drawn) [Compound 160] | < 5000 | < 10 | 100 to 1000 | – | – | – |
| CCn1c(-c2cccnc2[C@H](C)OC)c2c3cc(ccc31)-c1cc(O)cc(c1)C[C@H](NC(=O)[C@H](C(C)C)N(C)C(=O)[C@H]1CCCN(C(=O)[C@H]3CN3)C1)C(=O)N1CCC[C@H](N1)C(=O)OCC(C)(C)C2 [Compound 165] | – | – | – | < 5000 | < 10 | 1000 to 10000 |
| CCn1c(-c2cccnc2[C@H](C)OC)c2c3cc(ccc31)-c1csc(n1)C[C@H](NC(=O)[C@H](C(C)C)N(C)C(=O)N1CCN(C(=O)[C@@H]3CN3)CC1)C(=O)N1CCC[C@H](N1)C(=O)OCC(C)(C)C2 [Compound 168] | – | – | – | < 5000 | 10 to 100 | 100 to 1000 |
| CCn1c(-c2cccnc2[C@H](C)OC)c2c3cc(ccc31)-c1csc(n1)C[C@H](NC(=O)[C@H](C(C)C)N(C)C(=O)N1CCN(C(=O)[C@H]3CN3)CC1)C(=O)N1CCC[C@H](N1)C(=O)OCC(C)(C)C2 [Compound 169] | – | – | – | < 5000 | 10 to 100 | 100 to 1000 |
| CCn1c(-c2cccnc2[C@H](C)OC)c2c3cc(ccc31)-c1cc(O)cc(c1)C[C@H](NC(=O)[C@H](C1CCCC1)N(C)C(=O)CN(C)C(=O)[C@@H]1N[C@@H]1C1CC1)C(=O)N1CCC[C@H](N1)C(=O)OCC(C)(C)C2 [Compound 170] | – | – | – | < 5000 | 10 to 100 | 10 to 100 |
| CCn1c(-c2cccnc2[C@H](C)OC)c2c3cc(ccc31)-c1cc(O)cc(c1)C[C@H](NC(=O)[C@H](C(C)C)N(C)C(=O)[C@@]1(F)CCN(C(=O)[C@H]3CN3)C1)C(=O)N1CCC[C@H](N1)C(=O)OCC(C)(C)C2 [Compound 171] | – | – | – | < 5000 | < 10 | 100 to 1000 |
| CCn1c(-c2cccnc2[C@H](C)OC)c2c3cc(ccc31)-c1cc(O)cc(c1)C[C@H](NC(=O)[C@H](C1CCCC1)N1CC[C@@]3(CCN(C(=O)[C@H]4CN4)C3)C1=O)C(=O)N1CCC[C@H](N1)C(=O)OCC(C)(C)C2 [Compound 174] | – | – | – | < 5000 | < 10 | 100 to 1000 |
| CCn1c(-c2cccnc2[C@H](C)OC)c2c3cc(ccc31)-c1cc(O)cc(c1)C[C@H](NC(=O)[C@H](C(C)C)N(C)C(=O)[C@@H]1CCN(C(=O)[C@H]3CN3)C1)C(=O)N1CCC[C@H](N1)C(=O)OCC(C)(C)C2 [Compound 186] | – | – | – | < 5000 | < 10 | 100 to 1000 |
| CCn1c(-c2cccnc2[C@H](C)OC)c2c3cc(ccc31)-c1cc(O)cc(c1)C[C@H](NC(=O)[C@H](C(C)C)N(C)C(=O)CN(C)C(=O)[C@H]1CN1CCCOC)C(=O)N1CCC[C@H](N1)C(=O)OCC(C)(C)C2 (stereo partly drawn) [Compound 201] | < 5000 | < 10 | 100 to 1000 | – | – | – |

Reference: patent publication US11739074B2, “Ras inhibitors” (Revolution Medicines, Inc., priority 2019, dated 2023)
